# Experimental data as given in paper PMC8026324, “In Vitro Antiplasmodial, Heme Polymerization, and Cytotoxicity of Hydroxyxanthone Derivatives” (Journal of Tropical Medicine, 2021).
# Tests used:
# [1] = test system: P. falciparum strain 3D-7; set-up: method as in doi:10.22159/ajpcr.2017.v10i12.19858; conditions: cited from earlier work; for IC50: read-out: antiplasmodial IC50 on P. falciparum strain 3D-7
# MCF-7 = test system: MCF-7; set-up: method as in earlier work; conditions: cited from earlier work
# [2] = test system: Plasmodium falciparum 3D-7 (chloroquine-sensitive strain); experiment: In vitro antiplasmodial activity assay, microscopic method, strain 3D-7; type: cell-based; conditions: for IC50: 72 hours incubation, microscopic method, read-out: IC50 on P. falciparum 3D-7; for antiplasmodial activity category on P. falciparum 3D-7: category by IC50
# Method: (§1) The test of antiplasmodial activity began with the culture of P. falciparum 3D-7 and FCR-3 using the modified Trager and Jensen method. The plasmodium was cultured in human O red blood cells diluted to 3% haematocrit in RPMI 1640 medium complemented with 10% human O serum. The medium was made by adding 10.43 g of powder RPMI 1640, 6 g HEPES, 2 g NaHCO3, 25 mg gentamycin, and sterile distilled water up to 1 L. The medium pH was adjusted so that it reached ±7.2. It was sterilized using a 0.22 μm filter and stored at 4°C. The complete plasmodium culture medium was made by adding human serum with a concentration of 10% in the medium. The plasmodium culture was incubated in candle jar in an incubator with a temperature of 37°C and was observed every 24 hours.
# (§2) The plasmodium was synchronized to obtain the ring stage by adding 5% of D-sorbitol. The plasmodium was transferred from culture flask to a conical tube, and then it was centrifuged with a speed of 1000 rpm for 10 minutes. After the supernatant was disposed, the sterile 5% sorbitol was added and incubated for 10 minutes at a temperature of 37°C. The plasmodium suspension was centrifuged again; the supernatant was disposed and the plasmodium was washed by adding culture medium. Then, the plasmodium suspension was centrifuged again, and the supernatant was discarded, resulting in a plasmodium in ring stage only. The parasitemia was calculated from a thin blood preparation. The test used 1% parasitemia at 2% haematocrit in RPMI medium which complemented with 10% human O serum.
# (§3) Each testing compound was dissolved in RPMI medium. The testing compound in various concentrations with volume of 100 μL was incorporated into the 96-well microplate, and then 100 μL of Plasmodium suspension was added. Each series of concentrations was replicated three times. The microplate was incubated at a temperature of 37°C for 72 hours. At the end of the incubation, a thin blood smear was made using 10% Giemsa stain and observed under a light microscope at 1000x magnification. The percentage of parasitemia (counting a minimum of 1,000 erythrocytes) was calculated from the preparation of thin blood and then used to calculate the percentage of plasmodium growth inhibition. […] Antiplasmodial activity is expressed as IC50, which is the concentration of a compound that is required for 50% inhibition of plasmodium growth. The IC50 value was calculated by probit analysis using SPSS software (IBM Corp., Chicago). The lower the IC50 value obtained, the greater the antiplasmodial activity.
# Hela = test system: Hela; set-up: method as in earlier work; conditions: cited from earlier work
# [3] = test system: Plasmodium falciparum FCR-3 (chloroquine-resistant strain); experiment: In vitro antiplasmodial activity assay, microscopic method, strain FCR-3; type: cell-based; conditions: for IC50: 72 hours incubation, microscopic method, read-out: IC50 on P. falciparum FCR-3; for antiplasmodial activity category on P. falciparum FCR-3: category by IC50
# Method: as §1, §2, §3
# WIDR = test system: WIDR; set-up: method as in earlier work; conditions: cited from earlier work
# Vero cells = experiment: In vitro cytotoxicity test, MTT assay on Vero cell line; type: cell-based; conditions: for IC50: MTT assay; for Selectivity index 3D-7: ratio IC50 on Vero cell/IC50 on P. falciparum 3D-7; for Selectivity index FCR-3: ratio IC50 on Vero cell/IC50 on P. falciparum FCR-3
# Method: The in vitro cytotoxicity test was conducted using the 3-(4,5-dimethylthiazol-2-yl)2,5-diphenyltetrazolium bromide (MTT) assay method on Vero cell line culture using the Anderson et al.'s modified method.
# The cell was removed from the cryo medium. Then, the cell was thawed at 37°C. The liquid cell was subsequently transferred to the tube and a culture medium was added to a volume of 10 mL. Then, the suspension was centrifuged for 15 minutes so that it would form cell pellets. The supernatant was removed and 1 mL of culture medium was added to the cell pellets. Finally, the suspension was transferred to the Petri dish and incubated in the incubator with 5% of CO2 at 37°C.
# The medium of Vero cell culture was removed, and then the cell was washed using a PBS solution with a volume of PBS ± 1/2 of the initial medium volume. This step was done twice and 1 mL of trypsin 0.25% was added. Subsequently, the cell was incubated in the CO2 incubator at 37°C for 3 minutes. Then, the cell was resuspended using 2 mL of culture medium and PBS solution was added up to 10 mL. The suspension was centrifuged for 15 minutes so that it formed pellets. Pellets were added with 1 mL of culture medium and resuspended. Take 10 μL of the cell suspension and density of cells was calculated.
# Then, the cell was added with culture medium to 10 mL. A total of 100 μL of such suspensions was transferred into each well of the 96-well microplate, but three of the wells were emptied as medium controls. Subsequently, the microplate was incubated in a 5% CO2 incubator at 37°C.
# Each hydroxyxanthone derivative compound was dissolved in DMSO, and a variety of concentrations were prepared in the medium. Each concentration of the testing compound was added into the 96-well microplate triplicately. Cell control and medium control were not given a testing compound solution. The medium control remained blank, while the cell control contained culture medium only. […] Then, the cell was incubated in a 5% CO2 incubator at 37°C for 24 hours.
# After the cell was incubated for 24 hours, the medium was discarded and washed with PBS. Then, each well was added with 100 μL of 5 mg/mL of MTT solution. The 96-well microplate was incubated again in the incubator of CO2 at 37°C for 4 hours. Then, 100 μL of 10% of SDS in 0.01 MHCl was added. The cells were placed in a dark room at room temperature for 24 hours.
# The absorbance was measured using the enzyme-linked immunosorbent assay (ELISA) reader at 595 nm wavelength. The cytotoxicity test on the Vero cells was done by calculating the percentage of Vero cell inhibition of the absorption value of the test compound, cell control, and medium control. The cytotoxic effect was expressed as IC50. The IC50 value was obtained from the probit analysis by using SPSS software (IBM Corp., Chicago). The degree of selectivity was expressed as a selectivity index. The selectivity index was obtained from the ratio between the IC50 cytotoxic effect on Vero cells and IC50 antiplasmodial activity on Plasmodium. A compound is said to be safe if the value of the selectivity index is >10 [20].
# heme polymerization = test system: heme polymerization; set-up: method as in PMID 9199506; conditions: cited from earlier work
# [4] = Chlorocebus sabaeus, Vero, 24 h, 24 hours incubation
compound,measurement,setting,value
"O=c1c2cc(O)ccc2oc2ccc(O)cc12 [2,7-dihydroxyxanthone]",IC50,[1],1.34 µM
O=c1c2ccccc2oc2ccc(O)cc12 [2-hydroxyxanthone],antiplasmodial IC50,[1],4.385 µg/mL
same,IC50,[1],20.7 µM
"O=c1c2cccc(Cl)c2oc2cccc(O)c12 [HX4, 1-hydroxy-5-chloroxanthone]",cytotoxicity on MCF-7 (in words),MCF-7,weak
same,inhibition at 50.68 µM,"[2]; Plasmodium falciparum, 50.68 μM, read-out: Growth inhibition of P. falciparum Strain 3D-7",46.5 ± 0.8%
same,inhibition at 101.36 µM,"[2]; Plasmodium falciparum, 101.36 μM, read-out: Growth inhibition of P. falciparum Strain 3D-7",50.96 ± 0.361%
same,inhibition at 202.71 µM,"[2]; Plasmodium falciparum, 202.71 μM, read-out: Growth inhibition of P. falciparum Strain 3D-7",57.1 ± 1.57%
same,inhibition at 405.43 µM,"[2]; Plasmodium falciparum, 405.43 μM, read-out: Growth inhibition of P. falciparum Strain 3D-7",64.51 ± 0.418%
same,inhibition at 810.86 µM,"[2]; Plasmodium falciparum, 810.86 μM, read-out: Growth inhibition of P. falciparum Strain 3D-7",74 ± 0.923%
same,IC50,[2]; Plasmodium falciparum,85.3 ± 4.87 µM
same,antiplasmodial activity category on P. falciparum 3D-7,[2],moderate (moderate (IC50 20–100 μM))
same,cytotoxicity on Hela (in words),Hela,weak
same,inhibition at 50.68 µM,"[3]; Plasmodium falciparum, FCR3, 50.68 μM, read-out: Growth inhibition of P. falciparum Strain FCR-3",47.4 ± 0.736%
same,inhibition at 101.36 µM,"[3]; Plasmodium falciparum, FCR3, 101.36 μM, read-out: Growth inhibition of P. falciparum Strain FCR-3",49.8 ± 3.36%
same,inhibition at 202.71 µM,"[3]; Plasmodium falciparum, FCR3, 202.71 μM, read-out: Growth inhibition of P. falciparum Strain FCR-3",56.4 ± 3.79%
same,inhibition at 405.43 µM,"[3]; Plasmodium falciparum, FCR3, 405.43 μM, read-out: Growth inhibition of P. falciparum Strain FCR-3",61.2 ± 3.02%
same,inhibition at 810.86 µM,"[3]; Plasmodium falciparum, FCR3, 810.86 μM, read-out: Growth inhibition of P. falciparum Strain FCR-3",72.9 ± 1.34%
same,IC50,"[3]; Plasmodium falciparum, FCR3",89.9 ± 7.69 µM
same,antiplasmodial activity category on P. falciparum FCR-3,[3],moderate (moderate (IC50 20–100 μM))
same,cytotoxicity on WIDR (in words),WIDR,weak
same,IC50,Vero cells; 24 hours incubation,331 µM
same,IC50,Vero cells; [4],335 µM
same,inhibition at 63.25 µM,"Vero cells; Chlorocebus sabaeus, Vero, 24 h, 63.25 μM, read-out: Vero cell growth inhibition after 24 hours incubation",19%
same,inhibition at 126.49 µM,"Vero cells; Chlorocebus sabaeus, Vero, 24 h, 126.49 μM, read-out: Vero cell growth inhibition after 24 hours incubation",32.5%
same,inhibition at 253.39 µM,"Vero cells; Chlorocebus sabaeus, Vero, 24 h, 253.39 μM, read-out: Vero cell growth inhibition after 24 hours incubation",43.2%
same,inhibition at 506.78 µM,"Vero cells; Chlorocebus sabaeus, Vero, 24 h, 506.78 μM, read-out: Vero cell growth inhibition after 24 hours incubation",54.4%
same,inhibition at 1013.57 µM,"Vero cells; Chlorocebus sabaeus, Vero, 24 h, 1013.57 μM, read-out: Vero cell growth inhibition after 24 hours incubation",68.9%
same,inhibition at 2027.14 µM,"Vero cells; Chlorocebus sabaeus, Vero, 24 h, 2027.14 μM, read-out: Vero cell growth inhibition after 24 hours incubation",90%
same,IC50,"Vero cells; Chlorocebus sabaeus, Vero",82.6 µg/mL
same,Selectivity index 3D-7,Vero cells,3.88
same,Selectivity index FCR-3,Vero cells,3.68
"Cc1c(O)ccc2c(=O)c3c(O)cccc3oc12 [HX5, 1,6-dihydroxy-5-methylxanthone]",cytotoxicity on MCF-7 (in words),MCF-7,weak
same,inhibition at 20.64 µM,"[2]; Plasmodium falciparum, 20.64 μM, read-out: Growth inhibition of P. falciparum Strain 3D-7",37.9 ± 0.441%
same,inhibition at 41.28 µM,"[2]; Plasmodium falciparum, 41.28 μM, read-out: Growth inhibition of P. falciparum Strain 3D-7",45 ± 0.563%
same,inhibition at 82.56 µM,"[2]; Plasmodium falciparum, 82.56 μM, read-out: Growth inhibition of P. falciparum Strain 3D-7",54.2 ± 1.57%
same,inhibition at 165.13 µM,"[2]; Plasmodium falciparum, 165.13 μM, read-out: Growth inhibition of P. falciparum Strain 3D-7",75.4 ± 1.29%
same,inhibition at 330.25 µM,"[2]; Plasmodium falciparum, 330.25 μM, read-out: Growth inhibition of P. falciparum Strain 3D-7",93.3 ± 0.956%
same,IC50,[2]; Plasmodium falciparum,46.69 ± 0.29 µM
same,antiplasmodial activity category on P. falciparum 3D-7,[2],moderate (moderate (IC50 20–100 μM))
same,cytotoxicity on Hela (in words),Hela,weak
same,inhibition at 20.64 µM,"[3]; Plasmodium falciparum, FCR3, 20.64 μM, read-out: Growth inhibition of P. falciparum Strain FCR-3",33.63 ± 0.327%
same,inhibition at 41.28 µM,"[3]; Plasmodium falciparum, FCR3, 41.28 μM, read-out: Growth inhibition of P. falciparum Strain FCR-3",41.14 ± 0.396%
same,inhibition at 82.56 µM,"[3]; Plasmodium falciparum, FCR3, 82.56 μM, read-out: Growth inhibition of P. falciparum Strain FCR-3",46.5 ± 0.816%
same,inhibition at 165.13 µM,"[3]; Plasmodium falciparum, FCR3, 165.13 μM, read-out: Growth inhibition of P. falciparum Strain FCR-3",73.5 ± 1.6%
same,inhibition at 330.25 µM,"[3]; Plasmodium falciparum, FCR3, 330.25 μM, read-out: Growth inhibition of P. falciparum Strain FCR-3",84.7 ± 0.902%
same,IC50,"[3]; Plasmodium falciparum, FCR3",59.7 ± 0.78 µM
same,antiplasmodial activity category on P. falciparum FCR-3,[3],moderate (moderate (IC50 20–100 μM))
same,cytotoxicity on WIDR (in words),WIDR,weak
same,IC50,Vero cells; 24 hours incubation,418 µM
same,IC50,Vero cells; [4],459 µM
same,inhibition at 64.4 µM,"Vero cells; Chlorocebus sabaeus, Vero, 24 h, 64.40 μM, read-out: Vero cell growth inhibition after 24 hours incubation",-5.19%
same,inhibition at 128.8 µM,"Vero cells; Chlorocebus sabaeus, Vero, 24 h, 128.80 μM, read-out: Vero cell growth inhibition after 24 hours incubation",27.9%
same,inhibition at 258.01 µM,"Vero cells; Chlorocebus sabaeus, Vero, 24 h, 258.01 μM, read-out: Vero cell growth inhibition after 24 hours incubation",37.8%
same,inhibition at 516.02 µM,"Vero cells; Chlorocebus sabaeus, Vero, 24 h, 516.02 μM, read-out: Vero cell growth inhibition after 24 hours incubation",48.3%
same,inhibition at 1032.03 µM,"Vero cells; Chlorocebus sabaeus, Vero, 24 h, 1032.03 μM, read-out: Vero cell growth inhibition after 24 hours incubation",68.1%
same,inhibition at 2064.07 µM,"Vero cells; Chlorocebus sabaeus, Vero, 24 h, 2064.07 μM, read-out: Vero cell growth inhibition after 24 hours incubation",88.8%
same,IC50,"Vero cells; Chlorocebus sabaeus, Vero",111 µg/mL
same,Selectivity index 3D-7,Vero cells,8.94
same,Selectivity index FCR-3,Vero cells,6.99
pentaacetylxanthone,heme polymerization inhibitory activity (in words),heme polymerization,inactive
pentametoxyxanthone,heme polymerization inhibitory activity (in words),heme polymerization,inactive
